Assay results: US7285683B2, “Bicyclic and tricyclic cannabinoids” (University of Connecticut, priority 2001, dated 2007)
Like-named read-outs stand apart in the source and are kept apart here.

Columns and labels:
[1] = target: T1, CB1 cannabinoid receptor (Rattus norvegicus, UniProt P20272); assay: CB1 receptor binding assay, [3H] CP-55,940 displacement, rat forebrain membranes
T1 construct: membranes were prepared from rat forebrain membranes; from tissue; host or cells: rat forebrain
Protocol: Some inventive analogs were tested for CB2 receptor binding affinity and for CB1 receptor affinity (to determine selectivity). As used herein, “binding affinity” is represented by the IC50 value which is the concentration of an analog required to occupy the 50% of the total number (Bmax) of the receptors. The lower the IC50 value the higher the binding affinity. […] For the CB1 receptor binding studies, membranes were prepared from rat forebrain membranes according to the procedure of P. R. Dodd et al, A Rapid Method for Preparing Synaptosomes: Comparison with Alternative Procedures, Brain Res., 107-118 (1981). The binding of the novel analogues to the CB1 cannabinoid receptor was assessed as described in W. A. Devane et al, Determination and Characterization of a Cannabinoid Receptor in a Rat Brain, Mol. Pharmacol., 34, 605-613 (1988) and A. Charalambous et al, 5′-azido Δ^8- THC: A Novel Photoaffinity Label for the Cannabinoid Receptor, J. Med. Chem., 35, 3076-3079 (1992) with the following changes. The above articles are incorporated by reference herein.
Membranes, previously frozen at −80° C., were thawed on ice. To the stirred suspension was added three volumes of TME (25 mM Tris-HCl buffer, 5 mM MgCl2 and 1 mM EDTA) at a pH 7.4. The suspension was incubated at 4° C. for 30 min. At the end of the incubation, the membranes were pelleted and washed three times with TME.
The treated membranes were subsequently used in the binding assay described below. Approximately 30 μg of membranes were incubated in silanized 96-well microtiter plate with TME containing 0.1% essentially fatty acid-free bovine serum albumin (BSA), 0.8 nM [^3H] CP-55,940, and various concentrations of test materials in a final volume of 200 μL. The assays were incubated for 1 hour at 30° C. and then immediately filtered using Packard Filtermate 196 harvester and Whatman GF/C filterplates and washed with wash buffer (TME) containing 0.5% BSA. Radioactivity was detected using MicroScint 20 scintillation cocktail added directly to the dried filterplates, and the filterplates were counted using a Packard Instruments Top-Count. Nonspecific binding was assessed using 100 nM CP-55,940. Data collected from three independent experiments performed with duplicate determinations was normalized between 100% and 0% specific binding for [^3H] CP-55,940, determined using buffer and 100 nM CP-55,940. The normalized data was analyzed using a 4-parameter nonlinear logistic equation to yield IC50 values. Data from at least two independent experiments performed in duplicate was used to calculate IC50 values which were converted to Ki values using the assumptions of Cheng et al, Relationship Between the Inhibition Constant (Ki) and the concentration of Inhibitor which causes 50% Inhibition (IC50) of an Enzymatic Reaction, Biochem. Pharmacol., 22, 3099-3102, (1973), which is incorporated by reference herein.

[2] = target: T2, CB2 receptor (Mus musculus, UniProt P47936); assay: CB2 receptor binding assay, [3H] CP-55,940 displacement, mouse spleen membranes
T2 construct: membranes were prepared from frozen mouse spleen; from tissue; host or cells: mouse spleen
T2 sequence (P47936 whole entry): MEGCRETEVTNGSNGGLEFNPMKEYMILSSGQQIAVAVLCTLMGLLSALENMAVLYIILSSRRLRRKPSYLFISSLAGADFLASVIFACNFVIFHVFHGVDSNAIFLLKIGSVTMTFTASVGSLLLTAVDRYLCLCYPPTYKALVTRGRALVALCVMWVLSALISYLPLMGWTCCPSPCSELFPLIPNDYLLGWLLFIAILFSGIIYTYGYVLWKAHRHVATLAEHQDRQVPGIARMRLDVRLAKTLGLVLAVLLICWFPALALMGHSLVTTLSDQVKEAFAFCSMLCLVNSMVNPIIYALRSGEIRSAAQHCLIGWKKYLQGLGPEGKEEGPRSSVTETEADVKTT

[3] = Table 1, bicyclic-cannabinoid analogs, rat forebrain membranes, 0.8 nM [3H] CP-55,940, read-out: Ki in nM for the CB1 Receptor

T1 sequence (P20272 whole entry): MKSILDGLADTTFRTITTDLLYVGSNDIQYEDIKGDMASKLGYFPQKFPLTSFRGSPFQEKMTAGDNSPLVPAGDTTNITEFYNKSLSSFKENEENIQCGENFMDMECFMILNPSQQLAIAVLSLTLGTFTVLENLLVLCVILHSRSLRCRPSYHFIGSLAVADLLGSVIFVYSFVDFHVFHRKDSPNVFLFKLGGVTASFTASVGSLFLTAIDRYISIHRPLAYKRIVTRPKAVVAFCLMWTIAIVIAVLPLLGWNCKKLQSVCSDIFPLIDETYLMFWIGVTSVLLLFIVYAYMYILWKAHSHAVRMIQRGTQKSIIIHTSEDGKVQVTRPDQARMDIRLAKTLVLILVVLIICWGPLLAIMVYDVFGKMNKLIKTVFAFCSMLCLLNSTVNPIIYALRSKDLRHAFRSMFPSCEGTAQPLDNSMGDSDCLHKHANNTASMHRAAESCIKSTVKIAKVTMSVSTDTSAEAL

SMILES | Ki [1] [nM] | Ki [2] [nM] | Ki [1, 3] [nM] | melting point | Ki ([1]; Table 2, hexahydrocannabinol analogs, rat forebrain membranes, 0.8 nM [3H] CP-55,940, read-out: Ki in nM for the CB1 Receptor) [nM]
CC(C)(CCCCCCI)c1cc(O)c2c(c1)OC(C)(C)[C@@H]1CC[C@@H](N=[N+]=[N-])C[C@@H]21 [Compound 8, 1-Hydroxy-3-(7′-iodo-1′,1′-dimethylheptyl)-6,6-dimethyl-9β-azido-6a,7,8,8,10,10a-hexahydro-6H-dibenzo[b,d]pyran] | 0.8 | 0.9 | – | – | –
CCCCCCC1(c2cc(O)c3c(c2)OC(C)(C)[C@@H]2CC[C@@H](O)C[C@@H]32)SCCS1 [Compound 5, 6a,7,8,9,10,10a-Hexahydro-3-(2-hexyl-1,3-dithiolan-2-yl)-6,6-dimethyl-6H-dibenzo[b,d]pyran-1,9β-diol] | – | 13.9 | – | – | –
CCCCCCC1(c2cc(O)c([C@@H]3CC(O)[C@@H]4C[C@H]3C4(C)C)c(O)c2)SCCS1 (stereo partly drawn) [Compound 3, (4R)4-[4-(2-hexyl-1,3-dithiolan-2-yl)-2,6-dihydroxyphenyl]-6,6-dimethyl-2β-norpinanol and (4R)-4-[4-(2-hexyl-1,3-dithiolan-2-yl)-2,6-dihydroxyphenyl]-6,6-dimethyl-2α-norpinanol] | – | 76.8 | 133 | – | –
CCCCCCC1(c2cc(O)c3c(c2)OC(C)(C)[C@@H]2CCC(=O)C[C@@H]32)SCCS1 (single isomer, unassigned) [Compound 4c, (−)-trans-3-(2-hexyl-1,3-dithiolan-2-yl)-6,6a,7,8,10,10a-hexahydro-1-hydroxy-6,6-dimethyl-9H-dibenzo[b,d]pyran-9-one] | 11.7 | 2.3 | – | 62 to 64 °C (dec.) | –
CCCCCCC1(c2cc(O)c3c(c2)OC(C)(C)[C@@H]2CCC(=O)C[C@@H]32)CCCC1 [Compound 4a, (−)-trans-3-(1′,1′-cyclopentylheptyl)-6,6a,7,8,10,10a-hexahydro-1-hydroxy-6,6-dimethyl-9H-dibenzo[b,d]pyran-9-one] | 0.1 | 2.6 | – | – | –
CCCCC=CC1(c2cc(O)c([C@@H]3CC(=O)[C@@H]4C[C@H]3C4(C)C)c(O)c2)CCCC1 [Compound 2b, (4R)4-[4-(1′,1′-cyclopentylhept-2′-enyl)-2,6-dihydroxyphenyl]-6,6-dimethyl-2-norpinanone] | 74.5 | 0.4 | – | 167 to 168 °C | –
C#CCCCCC(C)(C)c1cc(O)c2c(c1)OC(C)(C)[C@@H]1CCC(=O)C[C@@H]21 [Compound 4e, (−)-trans-3-(1′,1′-dimethylhept-6′-ynyl)-6,6a,7,8,10,10a-hexahydro-1-hydroxy-6,6-dimethyl-9H-dibenzo[b,d]pyran-9-one] | 10.7 | 4.1 | – | – | –
CC(C)(CCCCCCBr)c1cc(O)c2c(c1)OC(C)(C)[C@@H]1CCC(=O)C[C@@H]21 (relative stereo) [Compound 4d, (−)-trans-3-(7′-bromo-1′,1′-dimethylheptyl)-6,6a,7,8,10,10a-hexahydro-1-hydroxy-6,6-dimethyl-9H-dibenzo[b,d]pyran-9-one] | 1 | 11.8 | – | – | –
CCCCCCC1(c2cc(O)c([C@@H]3CC(=O)C4CC3C4(C)C)c(O)c2)SCCS1 (stereo partly drawn) [Compound 2c, (4R)-4-[4-(2-hexyl-1,3-dithiolan-2-yl)-2,6-dihydroxyphenyl]-6,6-dimethyl-2-norpinanone] | – | 10.9 | 224 | 160 to 161 °C (dec.) | –
C#CCCCCC(C)(C)c1cc(O)c([C@@H]2CC(=O)[C@@H]3C[C@H]2C3(C)C)c(O)c1 [Compound 2e, (4R)-4-[4-(1′,1′-dimethylhept-6′-ynyl)-2,6-dihydroxyphenyl]-6,6-dimethyl-2-norpinanone] | 30.8 | 0.2 | – | – | –
CC(C)(CCCCC=CI)c1cc(O)c2c(c1)OC(C)(C)[C@@H]1CC[C@@H](N=[N+]=[N-])C[C@@H]21 [Compound 9, 1-Hydroxy-3-(7′-iodo-1′,1′-dimethylhept-6′-enyl)-6,6-dimethyl-9β-azido-6a,7,8,8,10,10a-hexahydro-6H-dibenzo[b,d]pyran] | 0.7 | 0.7 | – | – | –
C#CCCCCC(C)(C)c1cc(O)c2c(c1)OC(C)(C)[C@@H]1CC[C@H](O)C[C@@H]21 [Compound 6e, 6a,7,8,9,10,10a-Hexahydro-3-(1′,1′-dimethylhept-6′-ynyl)-6,6-dimethyl-6H-dibenzo[b,d]pyran-1,9α-diol] | – | 12 | – | – | 11.3
CC(C)(CCCCCCBr)c1cc(O)c2c(c1)OC(C)(C)[C@@H]1CC[C@@H](N=[N+]=[N-])C[C@@H]21 [Compound 7d, 1-Hydroxy-3-(7′-bromo-1′,1′-dimethylheptyl)-6,6-dimethyl-9β-azido-6a,7,8,8,10,10a-hexahydro-6H-dibenzo[b,d]pyran] | 1.6 | 13.7 | – | – | –
CCCCCCC(C)(C)c1cc(O)c2c(c1)OC(C)(C)[C@@H]1CC[C@@H](N=[N+]=[N-])C[C@@H]21 [Compound 7g, 1-Hydroxy-3-(1′,1′-dimethylheptyl)-6,6-dimethyl-9β-azido-6a,7,8,8,10,10a-hexahydro-6H-dibenzo[b,d]pyran] | 5 | 10.2 | – | – | –
CC(C)(CCCCCCBr)c1cc(O)c([C@@H]2CC(=O)[C@@H]3C[C@H]2C3(C)C)c(O)c1 [Compound 2d, (4R)4-[4-(7′-bromo-1′,1′-dimethylheptyl)-2,6-dihydroxyphenyl]-6,6-dimethyl-2-norpinanone] | 10.6 | 9.3 | – | – | –
CCCCC=CC1(c2cc(O)c3c(c2)OC(C)(C)[C@@H]2CCC(=O)C[C@@H]32)CCCC1 [Compound 4b, (−)-trans-3-(1′,1′-cyclopentylhept-2′-enyl)-6,6a,7,8,10,10a-hexahydro-1-hydroxy-6,6-dimethyl-9H-dibenzo[b,d]pyran-9-one] | 0.2 | 0.2 | – | – | –
CCCCCCC1(c2cc(O)c([C@@H]3CC(=O)[C@@H]4C[C@H]3C4(C)C)c(O)c2)CCCC1 [Compound 2a, (4R)-4-[4-(1′,1′-cyclopentylheptyl)-2,6-dihydroxyphenyl]-6,6-dimethyl-2-norpinanone] | 50.6 | 0.4 | – | 187 to 188 °C | –
